Measured values published in US11896592B2, “Certain triazolopyridines and triazolopyrazines, compositions thereof and methods of use therefor” (Hutchison Medipharma Limited, priority 2009, dated 2024).

Target: T1, Recombinant human Met (c-Met) (Homo sapiens, UniProt P08581)
T1 construct: purchased Invitrogen PV3143
Experiment: Inhibition of c-Met kinase activity using Transcreener FP assay
Type: biochemical
Settings: Poly E4Y substrate, 28° C. 45 min, read-out: IC50, inhibition of c-Met kinase activity

T1 sequence (P08581 956-1390 limits assumed): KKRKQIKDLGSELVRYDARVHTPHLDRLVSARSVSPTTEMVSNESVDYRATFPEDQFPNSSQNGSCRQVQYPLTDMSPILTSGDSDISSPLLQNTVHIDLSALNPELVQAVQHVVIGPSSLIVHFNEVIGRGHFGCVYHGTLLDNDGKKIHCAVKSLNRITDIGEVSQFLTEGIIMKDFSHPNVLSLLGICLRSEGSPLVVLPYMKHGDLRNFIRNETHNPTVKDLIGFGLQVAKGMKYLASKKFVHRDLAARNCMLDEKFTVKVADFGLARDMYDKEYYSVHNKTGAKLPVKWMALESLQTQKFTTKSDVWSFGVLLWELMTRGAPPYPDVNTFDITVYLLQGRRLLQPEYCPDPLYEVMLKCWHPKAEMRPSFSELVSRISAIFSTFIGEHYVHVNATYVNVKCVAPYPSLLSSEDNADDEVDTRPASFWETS

| SMILES | IC50 |
| --- | --- |
| FC(F)(F)Cn1cc(-c2cnc3nnn(Cc4ccc5nccn5n4)c3n2)cn1 [Compound 287] | 1 to 100 nM |
| OCCn1cc(-c2cnc3nnn(Cc4ccn5nccc5n4)c3n2)cn1 [Compound 288] | 100 to 1000 nM |
| Cn1cc(-c2cnc3nnn(Cc4ccc5ncsc5n4)c3n2)cn1 [Compound 289] | 100 to 1000 nM |
| c1cn2cc(Cn3nnc4ncc(-c5cnn(C6CNC6)c5)nc43)ccc2n1 [Compound 290] | 1 to 100 nM |
| FC(F)(F)Cn1cc(-c2ccc3nnn(Cc4ccc5ncccc5n4)c3n2)cn1 [Compound 292] | 100 to 1000 nM |
| FC(F)(F)Cn1cc(-c2cnc3nnn(Cc4ccn5nccc5n4)c3n2)cn1 [Compound 293] | 100 to 1000 nM |
| Brc1cnc2nnn(Cc3cc4[nH]ncc4s3)c2n1 [Compound 295] | 1 to 100 nM |
| c1nn(C2COC2)cc1-c1cnc2nnn(Cc3cc4[nH]ncc4s3)c2n1 [Compound 296] | 100 to 1000 nM |
| Cc1cnc2ccc(Cn3nnc4ncc(-c5cnn(C)c5)nc43)cn12 [Compound 298] | 1 to 100 nM |
| CC(c1cc2[nH]ncc2s1)n1nnc2ncc(-c3cnn(C)c3)nc21 (stereo not shown) [Compound 299] | 100 to 1000 nM |
| Cn1cc(-c2cnc3nnn(Cc4ccc5ncc(Cl)n5c4)c3n2)cn1 [Compound 300] | 1 to 100 nM |
| N#CCn1cc(-c2cnc3nnn(Cc4ccn5nccc5c4)c3n2)cn1 [Compound 301] | 1 to 100 nM |
| N#Cc1ccc(-c2cnc3nnn(Cc4ccn5nccc5c4)c3n2)cn1 [Compound 302] | 1 to 100 nM |
| Fc1ccc(-c2cnc3nnn(Cc4ccn5nccc5c4)c3n2)cc1 [Compound 303] | 1 to 100 nM |
| COC(=O)c1cnn2ccc(Cn3nnc4ncc(-c5cnn(CCO)c5)nc43)cc12 [Compound 304] | 1 to 100 nM |
| Cc1cnc2ccc(Cn3nnc4ncc(-c5cnn(CCO)c5)nc43)cn12 [Compound 305] | 1 to 100 nM |
| OCCn1cc(-c2cnc3nnn(Cc4ccc5ncc(CO)n5c4)c3n2)cn1 [Compound 306] | 1 to 100 nM |

| SMILES | IC50 |
| --- | --- |
| Cn1cc(-c2cnc3nnn(Cc4ccc5ncc(C=O)n5c4)c3n2)cn1 [Compound 307, 6-((6-(1-Methyl-1H-pyrazol-4-yl)-1H-[1,2,3]triazolo[4,5-b]pyrazin-1-yl)methyl)-imidazo[1,2-a]pyridine-3-carbaldehyde] | 1 to 100 nM |
| COCc1cnc2ccc(Cn3nnc4ncc(-c5cnn(C)c5)nc43)cn12 [Compound 308] | 1 to 100 nM |
| COCc1cnc2ccc(Cn3nnc4ncc(-c5cnn(CCO)c5)nc43)cn12 [Compound 309] | 1 to 100 nM |
| O=Cc1cnn2ccc(Cn3nnc4ncc(-c5cnn(CCO)c5)nc43)cc12 [Compound 312, 5-((6-(1-(2-Hydroxyethyl)-1H-pyrazol-4-yl)-1H-[1,2,3]triazolo[4,5-b]pyrazin-1-yl)methyl)pyrazolo[1,5-a]pyridine-3-carbaldehyde] | 1 to 100 nM |
| OCCn1cc(-c2cnc3nnn(Cc4ccn5ncc(CO)c5c4)c3n2)cn1 [Compound 313] | 1 to 100 nM |
| OCCn1cc(-c2cnc3nnn(Cc4ccn5ncnc5c4)c3n2)cn1 [Compound 317] | 100 to 1000 nM |
| CN(C)Cc1cnc2ccc(Cn3nnc4ncc(-c5cnn(C)c5)nc43)cn12 [Compound 319] | 1 to 100 nM |
| Cn1cc(-c2cnc3nnn(Cc4ccc5ncc(CN6CCOCC6)n5c4)c3n2)cn1 [Compound 320] | 100 to 1000 nM |
| CCOCc1cnc2ccc(Cn3nnc4ncc(-c5cnn(C)c5)nc43)cn12 [Compound 321] | 1 to 100 nM |
| COCc1cnn2ccc(Cn3nnc4ncc(-c5cnn(CCO)c5)nc43)cc12 [Compound 322, 2-(4-(1-((3-(Methoxymethyl)pyrazolo[1,5-a]pyridin-5-yl)methyl)-1H-[1,2,3]triazolo[4,5-b]pyrazin-6-yl)-1H-pyrazol-1-yl)ethanol] | 1 to 100 nM |
| CC(C)OCc1cnc2ccc(Cn3nnc4ncc(-c5cnn(C)c5)nc43)cn12 [Compound 323] | 1 to 100 nM |
| COCc1cnc2ccc([C@H](C)n3nnc4ncc(-c5cnn(C)c5)nc43)cn12 [Compound 324] | 1 to 100 nM |
| COCc1cnc2ccc([C@@H](C)n3nnc4ncc(-c5cnn(C)c5)nc43)cn12 [Compound 325] | 1 to 100 nM |
| CCC(c1ccc2nccn2c1)n1nnc2ncc(-c3cnn(C)c3)nc21 (stereo not shown) [Compound 326] | 1 to 100 nM |
| CNCc1cnc2ccc(Cn3nnc4ncc(-c5cnn(C)c5)nc43)cn12 [Compound 327, N-methyl-1-(6-((6-(1-methyl-1H-pyrazol-4-yl)-1H-[1,2,3]triazolo[4,5-b]pyrazin-1-yl)methyl)imidazo[1,2-a]pyridin-3-yl)methanamine] | 1 to 100 nM |
| CC(c1ccc2nccn2c1)n1nnc2ncc(-c3cn[nH]c3)nc21 (stereo not shown) [Compound 328] | 1 to 100 nM |
| COc1ncc(-c2cnc3nnn(C(C)c4ccc5nccn5c4)c3n2)cc1NS(C)(=O)=O (stereo not shown) [Compound 329] | 1 to 100 nM |
